Source: paper PMC7473772 (eLife, 2020)
Where “and” joins values, the source holds several entries; their conditions need not be identical. Equal values may be shown once. Read-outs that look alike come from different tables or passages of the source.

What was measured:
[1] = test system: tbaqp2/tbaqp3 null cells expressing TbAQP2WT; test: microbe, parasite or virus in culture; assay type: cell-based, Trypanosoma brucei brucei
[2] = test system: tbaqp2/tbaqp3 null cells expressing TbAQP2^S131P/S263A; assay type: cell-based, Trypanosoma brucei brucei
[3] = test system: tbaqp2/tbaqp3 null cells expressing TbAQP2^I110W; assay type: cell-based, Trypanosoma brucei brucei
[4] = test system: tbaqp2/tbaqp3 null cells expressing TbAQP2^I110W/L264R; assay type: cell-based, Trypanosoma brucei brucei
[5] = test system: tbaqp2/tbaqp3 null cells expressing TbAQP2^I190T; assay type: cell-based, Trypanosoma brucei brucei
[6] = test system: tbaqp2/tbaqp3 null cells expressing TbAQP2^L84W/L118W; test: Drug sensitivity assay (resazurin); assay type: cell-based, Trypanosoma brucei brucei; settings: Fig. 4A, L84W/L118W in aqp2/aqp3 null, read-out: Alamar blue EC50, single repeats
[7] = test system: tbaqp2/tbaqp3 null cells expressing TbAQP2 L118M; test: microbe, parasite or virus in culture; assay type: cell-based, Trypanosoma brucei brucei
[8] = test system: tbaqp2/tbaqp3 null cells expressing TbAQP3^W102I/R256L; assay type: cell-based, Trypanosoma brucei brucei
tbaqp2 null (AQP2-KO) = test: Drug sensitivity assay (resazurin); assay type: cell-based; settings: Trypanosoma brucei, read-out: EC50 AQP2-KO AVG, AQP2-KO / tbaqp2 null; 48 h drug + 24 h resazurin
[9] = test system: tbaqp1-2-3 null cells expressing TbAQP2 position 84, 118 and 218 Trp and Met mutants; test: Drug sensitivity assay (resazurin), pentamidine and SHAM; assay type: cell-based, Trypanosoma brucei brucei
tbaqp2/tbaqp3 null cells = test: [3H]-pentamidine transport; assay type: cell-based, Trypanosoma brucei brucei
TbAQP2^S131P/S263A = TbAQP2^S131P/S263A (Trypanosoma brucei brucei, UniProt Q6ZXT3, S131P/S263A); test: [3H]-pentamidine transport; assay type: cell-based; settings: 30 nM [3H]-pentamidine
TbAQP2^S131P/S263A, sequence (Q6ZXT3 whole entry S131P/S263A): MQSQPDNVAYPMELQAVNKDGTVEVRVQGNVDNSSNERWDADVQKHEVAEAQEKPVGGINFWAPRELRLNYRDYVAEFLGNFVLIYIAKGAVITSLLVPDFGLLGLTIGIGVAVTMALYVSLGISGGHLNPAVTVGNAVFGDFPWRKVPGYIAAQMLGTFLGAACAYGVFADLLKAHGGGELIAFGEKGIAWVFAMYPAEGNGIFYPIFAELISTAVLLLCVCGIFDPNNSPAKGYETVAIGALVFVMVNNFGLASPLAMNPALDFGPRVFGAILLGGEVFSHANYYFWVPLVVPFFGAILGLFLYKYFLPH

TbAQP2^L258Y = TbAQP2^L258Y (Trypanosoma brucei brucei, UniProt Q6ZXT3, L258Y); test: [3H]-pentamidine transport; assay type: cell-based; settings: 30 nM [3H]-pentamidine
TbAQP2^L258Y, sequence (Q6ZXT3 whole entry L258Y): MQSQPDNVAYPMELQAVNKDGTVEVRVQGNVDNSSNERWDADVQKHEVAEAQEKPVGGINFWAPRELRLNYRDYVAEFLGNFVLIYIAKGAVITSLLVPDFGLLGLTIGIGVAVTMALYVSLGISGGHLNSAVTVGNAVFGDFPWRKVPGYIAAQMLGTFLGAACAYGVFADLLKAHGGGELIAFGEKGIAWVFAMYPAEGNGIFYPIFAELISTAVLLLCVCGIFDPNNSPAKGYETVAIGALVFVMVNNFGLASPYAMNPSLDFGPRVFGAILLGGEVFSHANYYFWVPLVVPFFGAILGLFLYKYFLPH

TbAQP2^I110W = TbAQP2^I110W (Trypanosoma brucei brucei, UniProt Q6ZXT3, I110W); test: [3H]-pentamidine transport; assay type: cell-based; settings: 30 nM [3H]-pentamidine
TbAQP2^I110W, sequence (Q6ZXT3 whole entry I110W): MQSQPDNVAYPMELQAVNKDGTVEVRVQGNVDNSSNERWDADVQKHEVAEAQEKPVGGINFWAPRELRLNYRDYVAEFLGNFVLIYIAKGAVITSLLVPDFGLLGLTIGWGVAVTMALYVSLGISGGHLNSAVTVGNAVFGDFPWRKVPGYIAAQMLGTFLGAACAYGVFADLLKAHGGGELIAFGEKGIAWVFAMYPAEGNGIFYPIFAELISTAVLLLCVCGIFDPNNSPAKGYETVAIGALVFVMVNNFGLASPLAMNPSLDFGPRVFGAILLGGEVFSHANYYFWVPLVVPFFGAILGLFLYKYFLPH

TbAQP2^I190T [10] = biological target: T1, TbAQP2^I190T (Trypanosoma brucei brucei, UniProt Q6ZXT3, I190T); test: cell-based
T1 sequence (Q6ZXT3 1-312 I190T): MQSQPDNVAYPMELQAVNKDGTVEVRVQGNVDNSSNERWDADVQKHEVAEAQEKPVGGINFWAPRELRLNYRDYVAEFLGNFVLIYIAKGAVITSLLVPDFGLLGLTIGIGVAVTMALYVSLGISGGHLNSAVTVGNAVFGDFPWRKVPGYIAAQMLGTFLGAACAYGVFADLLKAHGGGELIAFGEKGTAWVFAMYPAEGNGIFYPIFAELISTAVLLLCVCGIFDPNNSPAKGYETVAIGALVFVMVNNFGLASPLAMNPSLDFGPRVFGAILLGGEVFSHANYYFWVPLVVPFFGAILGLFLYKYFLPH

TbAQP2^I190T [11] = test: cell-based; parameters: species or system Trypanosoma brucei brucei; settings: TbAQP2^I190T cells; read-out: Km of lower affinity segment (LAPT1)
TbAQP2 L84W = TbAQP2 L84W (Trypanosoma brucei brucei, UniProt Q6ZXT3, L84W); test: [3H]-pentamidine transport; assay type: cell-based; settings: AQP2 mutant L84W; n=5
TbAQP2 L84W, sequence (Q6ZXT3 whole entry L84W): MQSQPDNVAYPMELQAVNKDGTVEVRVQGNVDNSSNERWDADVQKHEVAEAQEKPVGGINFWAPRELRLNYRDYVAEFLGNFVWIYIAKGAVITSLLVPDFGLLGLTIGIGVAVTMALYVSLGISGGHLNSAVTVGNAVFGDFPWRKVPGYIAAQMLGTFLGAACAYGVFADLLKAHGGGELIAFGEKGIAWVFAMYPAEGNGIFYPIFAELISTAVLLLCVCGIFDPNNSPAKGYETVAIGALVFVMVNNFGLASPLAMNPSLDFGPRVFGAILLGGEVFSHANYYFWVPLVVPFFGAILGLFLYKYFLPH

TbAQP3 = TbAQP3 (Trypanosoma brucei brucei, UniProt Q6ZXT2); assay type: cell-based
TbAQP3, sequence (Q6ZXT2 whole entry): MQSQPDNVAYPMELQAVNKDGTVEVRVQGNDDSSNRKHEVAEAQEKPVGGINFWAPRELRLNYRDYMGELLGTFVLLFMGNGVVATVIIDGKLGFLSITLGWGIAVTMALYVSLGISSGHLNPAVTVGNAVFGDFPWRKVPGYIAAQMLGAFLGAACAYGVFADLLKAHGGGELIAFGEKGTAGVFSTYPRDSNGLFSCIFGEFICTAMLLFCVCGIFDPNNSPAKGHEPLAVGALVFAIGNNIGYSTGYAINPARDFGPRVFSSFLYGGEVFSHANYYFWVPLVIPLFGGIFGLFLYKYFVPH

TbAQP3^W102I/R256L/Y250L = TbAQP3^W102I/R256L/Y250L (Trypanosoma brucei brucei, UniProt Q6ZXT2, R256L/W102I/Y250L); test: [3H]-pentamidine transport; assay type: cell-based; settings: AQP3 W102I/R256L/Y250L; over 30 minutes
TbAQP3^W102I/R256L/Y250L, sequence (Q6ZXT2 whole entry W102I/Y250L/R256L): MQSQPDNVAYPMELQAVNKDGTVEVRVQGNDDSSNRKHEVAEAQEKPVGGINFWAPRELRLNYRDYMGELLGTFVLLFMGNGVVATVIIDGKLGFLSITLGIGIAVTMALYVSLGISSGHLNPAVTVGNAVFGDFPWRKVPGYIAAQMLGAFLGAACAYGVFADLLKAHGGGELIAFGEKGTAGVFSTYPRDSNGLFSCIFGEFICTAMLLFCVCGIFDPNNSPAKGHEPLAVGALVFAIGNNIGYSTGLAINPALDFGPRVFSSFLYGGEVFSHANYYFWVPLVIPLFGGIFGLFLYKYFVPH

CRK12 RNAi cells = test: [3H]-pentamidine transport after CRK12 RNAi induction (endocytosis defect); assay type: cell-based, Trypanosoma brucei
TbAQP2/HAPT1 = TbAQP2/HAPT1 (Trypanosoma brucei brucei, UniProt Q6ZXT3); settings: cited from earlier work
TbAQP2/HAPT1, sequence (Q6ZXT3 whole entry): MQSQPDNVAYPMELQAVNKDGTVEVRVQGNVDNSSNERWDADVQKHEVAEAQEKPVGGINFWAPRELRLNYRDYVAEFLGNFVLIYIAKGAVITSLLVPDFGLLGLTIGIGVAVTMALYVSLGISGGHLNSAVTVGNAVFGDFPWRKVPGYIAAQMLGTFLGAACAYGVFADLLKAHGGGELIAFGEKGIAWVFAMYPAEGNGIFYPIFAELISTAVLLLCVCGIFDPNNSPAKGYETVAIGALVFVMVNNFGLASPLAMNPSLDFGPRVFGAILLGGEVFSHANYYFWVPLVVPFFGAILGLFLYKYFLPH

HAPT = settings: cited from earlier work
[12] = Trypanosoma brucei, read-out: Alamar blue EC50, MEAN
[13] = read-out: Alamar blue EC50, single repeats
[14] = AQP2/3-dKO, 30 nM [3H]-pentamidine, 1 mM adenosine
[15] = Fig. 3A, exp AQP016-AQP023, AQP2/3-dKO
[16] = Fig. 3A, exp AQP038-AQP041, AQP2/3-dKO
[17] = dKO control of the AQP3 mutant series, over 30 minutes
[18] = Fig. 3A, exp AQP038-AQP041, AQP2 mutant I190T

N=C(N)c1ccc(OCCCCCOc2ccc(C(=N)N)cc2)cc1 [Pentamidine]
EC50, percent of AQP2/3 null EC50 [1]: 0.08% and 0.0842% and 1.40% and 0.16%
EC50 [1, 12]: 0.00084 µM
EC50 ([1]; read-out: Alamar blue EC50, MEAN): 0.00161 µM
EC50 [1, 13]: 0.0015 µM
EC50, percent of AQP2/3 null EC50 [2]: 1.92%
EC50, percent of AQP2/3 null EC50 [3]: 122.13%
EC50 as percent of AQP2/3 null EC50, MEAN [4]: 101.41%
EC50 as percent of AQP2/3 null EC50, MEAN [5]: 6.89%
EC50 [6]: 0.0657 µM
EC50 ([6]; Trypanosoma brucei): 0.0534 µM
EC50 [7, 12]: 0.0342 µM
EC50 ([7]; Trypanosoma brucei, read-out: Alamar blue EC50, single repeats): 0.039 µM
EC50 ([7]; Trypanosoma brucei, read-out: EC50 AVG): 0.0342 µM
EC50 [7, 13]: 0.0395 µM and 0.0242 µM
EC50 as percent of AQP2/3 null EC50, MEAN [8]: 83.83%
EC50 (tbaqp2 null (AQP2-KO)): 0.13 µM
EC50 ([9]; +L84M in aqp1-3 triple KO, read-out: Alamar blue EC50, single repeats): 0.0008 µM and 0.0009 µM
EC50 ([9]; +L84W in aqp1-3 triple KO, read-out: Alamar blue EC50, single repeats): 0.0187 µM and 0.0153 µM
EC50 ([9]; +L84W/L118W in aqp1-3 triple KO, read-out: Alamar blue EC50, single repeats): 0.0657 µM
EC50 ([9]; +L118M in aqp1-3 triple KO, read-out: Alamar blue EC50, single repeats): 0.0278 µM and 0.0294 µM
EC50 ([9]; +L118W in aqp1-3 triple KO, read-out: Alamar blue EC50, single repeats): 0.0271 µM and 0.0258 µM
EC50 ([9]; +L218W in aqp1-3 triple KO, read-out: Alamar blue EC50, single repeats): 0.0039 µM and 0.0053 µM
EC50 ([9]; Trypanosoma brucei, +L84M in aqp1-3 triple KO, 3 repeats, read-out: Alamar blue EC50, MEAN): 0.00077 µM
EC50 ([9]; Trypanosoma brucei, +L84M in aqp1-3 triple KO, read-out: Alamar blue EC50, single repeats): 0.00065 µM
EC50 ([9]; Trypanosoma brucei, +L84W in aqp1-3 triple KO, 3 repeats, read-out: Alamar blue EC50, MEAN): 0.0161 µM
EC50 ([9]; Trypanosoma brucei, +L84W in aqp1-3 triple KO, read-out: Alamar blue EC50, single repeats): 0.0144 µM
EC50 ([9]; Trypanosoma brucei, +L84W/L118W in aqp1-3 triple KO, read-out: Alamar blue EC50, single repeats): 0.0534 µM
EC50 ([9]; Trypanosoma brucei, +L118M in aqp1-3 triple KO, 3 repeats, read-out: Alamar blue EC50, MEAN): 0.028 µM
EC50 ([9]; Trypanosoma brucei, +L118M in aqp1-3 triple KO, read-out: Alamar blue EC50, single repeats): 0.0268 µM
EC50 ([9]; Trypanosoma brucei, +L118W in aqp1-3 triple KO, 3 repeats, read-out: Alamar blue EC50, MEAN): 0.0266 µM
EC50 ([9]; Trypanosoma brucei, +L118W in aqp1-3 triple KO, read-out: Alamar blue EC50, single repeats): 0.0269 µM
EC50 ([9]; Trypanosoma brucei, +L218M in aqp1-3 triple KO, 3 repeats, read-out: Alamar blue EC50, MEAN): 0.00063 µM
EC50 ([9]; Trypanosoma brucei, +L218W in aqp1-3 triple KO, 3 repeats, read-out: Alamar blue EC50, MEAN): 0.00439 µM
EC50 ([9]; Trypanosoma brucei, +L218W in aqp1-3 triple KO, read-out: Alamar blue EC50, single repeats): 0.004 µM
Pentamidine transport rate (tbaqp2/tbaqp3 null cells; [14]): 0.00022 pmol/10E7 cells/s and 0.000123 pmol/10E7 cells/s
Pentamidine transport rate, percent of +AQP2-WT (tbaqp2/tbaqp3 null cells; [14]): 0.383% and 1.05%
Pentamidine transport rate AVG (tbaqp2/tbaqp3 null cells; AQP2/3-dKO, n=16): 2.76E-04 pmol/10E7 cells/s
Pentamidine transport rate, percent of +AQP2-WT, AVG (tbaqp2/tbaqp3 null cells; AQP2/3-dKO, n=16): 1.08% of +AQP2-WT
Pentamidine transport rate, AVG (tbaqp2/tbaqp3 null cells; Fig. 3A, exp AQP001-AQP023, AQP2/3-dKO): 2.76E-04 pmol/10E7 cells/s
Pentamidine transport rate as percent of +AQP2-WT, AVG (tbaqp2/tbaqp3 null cells; [15]): 1.32%
Pentamidine transport rate as percent of +AQP2-WT, single experiments (tbaqp2/tbaqp3 null cells; [15]): 1.4% and 1.5% and 1.0%
Pentamidine transport rate as percent of +AQP2-WT, AVG (tbaqp2/tbaqp3 null cells; [16]): 0.383%
Pentamidine transport rate, AVG (tbaqp2/tbaqp3 null cells; [16]): 0.000123 pmol/10E7 cells/s
Pentamidine transport rate, single experiments (tbaqp2/tbaqp3 null cells; [16]): 0.0001045 pmol/10E7 cells/s and 0.0001529 pmol/10E7 cells/s and 0.0001563 pmol/10E7 cells/s and 8.02E-05 pmol/10E7 cells/s
Pentamidine transport rate (tbaqp2/tbaqp3 null cells; [17]): 1.22E-04 pmol/10E7 cells/s
Pentamidine transport rate, percent of TbAQP2WT control (tbaqp2/tbaqp3 null cells; [17]): 0.57%
Transport rate AVG (tbaqp2/tbaqp3 null cells; strain AQKO, unit not given, +AQP2-WT = 100): 1.05
Pentamidine transport rate (TbAQP2^S131P/S263A): 0.00111 pmol/10E7 cells/s
Pentamidine transport rate (TbAQP2^L258Y): 0.0004 pmol/10E7 cells/s
Pentamidine transport rate (TbAQP2^I110W): 0.000216 pmol/10E7 cells/s
IC50 (TbAQP2^I190T [10]): 0.0309 ± 0.0122 µM
Pentamidine transport rate as percent of +AQP2-WT, AVG (TbAQP2^I190T [10]; [18]): 2.728%
Pentamidine transport rate, AVG (TbAQP2^I190T [10]; [18]): 0.0008657 pmol/10E7 cells/s
Pentamidine transport rate, single experiments (TbAQP2^I190T [10]; [18]): 0.0007167 pmol/10E7 cells/s and 0.001156 pmol/10E7 cells/s and 0.0009528 pmol/10E7 cells/s and 0.0006372 pmol/10E7 cells/s
Km (TbAQP2^I190T [11]): 59.9 ± 9.1 µM
Pentamidine transport rate AVG (TbAQP2 L84W): 0.0006628 pmol/10E7 cells/s
Pentamidine transport rate (TbAQP3): 1.04E-04 pmol/10E7 cells/s
Pentamidine transport rate, percent of TbAQP2WT control (TbAQP3): 0.49%
Transport rate AVG (TbAQP3): 0.48
Pentamidine transport rate (TbAQP3^W102I/R256L/Y250L): 2.46E-04 pmol/10E7 cells/s
pentamidine uptake rate, CRK+tet, AVERAGE (CRK12 RNAi cells; CRK12 RNAi induced (+tet), 4 experiments): 0.00587 pmol/1E7 cells/s-1
pentamidine uptake rate, CRK+tet (CRK12 RNAi cells; CRK12 RNAi induced (+tet), single experiments): 0.00804 pmol/1E7 cells/s-1 and 0.004193 pmol/1E7 cells/s-1 and 0.006636 pmol/1E7 cells/s-1 and 0.004619 pmol/1E7 cells/s-1
pentamidine uptake rate, CRK-tet, AVERAGE (CRK12 RNAi cells; CRK12 RNAi not induced (-tet), 4 experiments): 0.00656 pmol/1E7 cells/s-1
Gibbs free energy of pentamidine/AQP2 interaction (TbAQP2/HAPT1): -42 kJ/mol
Vmax (HAPT): 0.0044 ± 0.0004 pmol(10^7 cells)^−1 s^−1
Vmax for HAPT-mediated pentamidine uptake (HAPT): 9.5 × 10^5 molecules/cell/h and 8.5 × 10^6 molecules/cell/h
